Results from US11033624B2, “Medical item for prevention and treatment of ear infection” (Novaflux Inc., priority 2010, dated 2021).

Assay: Thermogravimetric analysis weight loss
Type: physicochemical
Details: 250° C., pure state, heating rate 10° C./min
Procedure: An anti-biotic agent was selected consisting of ciprofloxacin betaine crystalline powder (C.A.S. Registry No. 85721-33-1). Ciprofloxacin is a broad spectrum antimicrobial agent having less than 1 percent weight loss at a temperature of 250° C. when measured in a pure state by thermogravimetric analysis at a heating rate of 10° C./min. The ciprofloxacin melted over a temperature range of 252° C. to 271° C.

O=C(O)c1cn(C2CC2)c2cc(N3CCNCC3)c(F)cc2c1=O [Ciprofloxacin, ciprofloxacin betaine]
weight loss by thermogravimetric analysis: less than 1%
